Legend:
[1] = test system: MIA-Paca2 (KRAS G12C); assay: Tumor cell proliferation inhibition assay (CellTiter-Glo), MIA-Paca2; format: cell-based, Human; details: 10% fetal bovine serum
Method: (§1) The H358, H23 or MIA-Paca2 cells were digested, centrifuged and resuspended, and the cell density was measured with a Scepter automatic cell counter. Cells were diluted to a solution containing 44,000 cells per milliliter, then added to a 96-well culture plate at 90 μL per well. The 96-well plate was placed in a 5% CO2 incubator at 37° C., and after the cells were cultured for 24 hours, different concentrations of the compounds to be tested were added. Cells were incubated with compounds in the presence of 10% fetal bovine serum for 72 hours. The inhibition of cell growth was assessed by measuring ATP levels by using the CellTiter-Glo Luminescent Cell Viability Assay Kit (details in manufacturer's instructions). In brief, 30 μL of CellTiter-Glo reagent was added to each well and the plate was shaken for 10 minutes to induce cell lysis, then the fluorescent signal was detected and recorded with a Fluoroskan Ascent FL (Thermo). Maximum signal values were obtained from cells treated with DMSO for 72 hours. Minimum signal values were obtained with medium only (zero cell number). Inhibition rate %=(maximum signal value-compound signal value)/(maximum signal value-minimum signal value)×100%. Data were processed by using Graphpad prism5 software. IC50 values were calculated using a sigmoidal dose-response curve.

[2] = test system: H358 (KRAS G12C); assay: Tumor cell proliferation inhibition assay (CellTiter-Glo), H358; format: cell-based, Human; details: 10% fetal bovine serum
Method: as §1

[3] = test system: H23 (KRAS G12C); assay: Tumor cell proliferation inhibition assay (CellTiter-Glo), H23; format: cell-based, Human; details: 72 hours, 10% fetal bovine serum
Method: as §1

[4] = Pharmacokinetic (PK) experiment in rats by gavage; format: in vivo; details: rat, plasma, po, male SD rats, 20 mg/kg
Method: Male SD rats, weighing 180-250 g, were fasted overnight before the test and stomach administrated with the test compound at 20 mg/kg. 15 minutes, 30 minutes, and 1, 2, 4, 6, 8, and 24 hours after administration, blood was taken from the end of the tail of the fracture, about 0.3 mL per time point, then placed in a centrifuge tube containing K2-EDTA, and centrifuged (2000 g, 10 min, at 4° C.). Plasma was collected and stored in an ultra-low temperature freezer at −80° C. 50 μL of plasma samples were vortexed with 135 μL of acetonitrile (containing 1 μg/mL internal standard) for protein precipitation and centrifuged, and the supernatant was collected for LC-MS/MS analysis.
After the rats oral administrated with the Pyridopyrimidinone compounds provided by the present disclosure, the absorption is good, and the blood exposure is relatively high. […] Cmax refers to the maximum plasma concentration, T1/2 is the half-life, AUC0-24 refers to the area under the 0-24 hour time-concentration curve, and AUC0-inf refers to the area under the 0-Inf time-concentration curve.

Structure (SMILES) | IC50 ([1]; Homo sapiens, MIA PaCa-2, 72 h) | IC50 ([2]; Homo sapiens, NCI-H358, 72 h) | melting point | also measured
C=CC(=O)N1CCN(c2nc(=O)n(-c3c(C)ccnc3C(C)C)c3nc(-c4c(OC)ccc5ccoc45)c(F)cc23)[C@@H](C)C1 [Compound 109, 4-((S)-4-acryloyl-2-methylpiperazin-1-yl)-6-fluoro-1-(2-isopropyl-4-methylpyridin-3-yl)-7-(6-methoxybenzofuran-7-yl)pyrido[2,3-d]pyrimidin-2(1H)-one] | 100 to 500 nM | 50 to 100 nM | 156 to 158 °C | 
C=CC(=O)N1CCN(c2nc(=O)n(-c3c(C)ccnc3C(C)C)c3nc(-c4c(F)c(F)cc5ccoc45)c(Cl)cc23)[C@@H](C)C1 (atropisomer, axis not shown; (P)) [Compound 103-2, 4-((S)-4-acryloyl-2-methylpiperazin-1-yl)-6-chloro-7-(5,6-difluorobenzofuran-7-yl)-1(P)-(2-isopropyl-4-methylpyridin-3-yl)pyrido[2,3-d]pyrimidin-2(1H)-one] |  |  |  | IC50 ([1]; 72 hours): 100 to 500 nM; IC50 [3]: 10 to 50 nM; IC50 ([2]; 72 hours): 100 to 500 nM
C=CC(=O)N1CCN(c2nc(=O)n(-c3c(C)ccnc3C(C)C)c3nc(-c4c(F)c(F)cc5ccoc45)c(F)cc23)[C@@H](C)C1 [Compound 74, 4-((S)-4-acryloyl-2-methylpiperazin-1-yl)-7-(5,6-difluorobenzofuran-7-yl)-6-fluoro-1-(2-isopropyl-4-methylpyridin-3-yl)pyrido[2,3-d]pyrimidin-2(1H)-one] |  |  |  | IC50 ([1]; 72 hours): 50 to 100 nM; IC50 [3]: < 10 nM; IC50 ([2]; 72 hours): 10 to 50 nM
C=CC(=O)N1CCN(c2nc(=O)n(-c3c(C)ccnc3C(C)C)c3nc(-c4c(F)ccc5ncsc45)c(F)cc23)[C@@H](C)C1 [Compound 78, 4-((S)-4-acryloyl-2-methylpiperazin-1-yl)-6-fluoro-7-(6-fluorobenzo[d]thiazol-7-yl)-1-(2-isopropyl-4-methylpyridin-3-yl)pyrido[2,3-d]pyrimidin-2(1H)-one] | > 500 nM | 100 to 500 nM | 158 to 162 °C | 
C=CC(=O)N1C[C@H](C)N(c2nc(=O)n(-c3c(C)ccnc3C(C)C)c3nc(-c4c(F)c(F)cc5ccoc45)c(F)cc23)C[C@H]1C [Compound 91, 4-((2S,5R)-4-acryloyl-2,5-dimethylpiperazin-1-yl)-7-(5,6-difluorobenzofuran-7-yl)-6-fluoro-1-(2-isopropyl-4-methylpyridin-3-yl)pyrido[2,3-d]pyrimidin-2(1H)-one] |  |  |  | IC50 ([1]; 72 hours): 50 to 100 nM; IC50 [3]: < 10 nM; IC50 ([2]; 72 hours): 10 to 50 nM
C=CC(=O)N1CCN(c2nc(=O)n(-c3c(C)ccnc3C(C)C)c3nc(-c4c(F)ccc5ccsc45)c(F)cc23)[C@@H](C)C1 [Compound 71, 4-((S)-4-Acryloyl-2-methylpiperazin-1-yl)-6-fluoro-7-(6-fluorobenzo[b]thiophen-7-yl)-1-(2-isopropyl-4-methylpyridin-3-yl)pyrido[2,3-d]pyrimidin-2(1H)-one] | 50 to 100 nM | 10 to 50 nM | 148 to 150 °C | 
C=CC(=O)N1CCN(c2nc(=O)n(-c3c(C)ccnc3C(C)C)c3nc(-c4c(C)ccc5ccoc45)c(F)cc23)[C@@H](C)C1 [Compound 108, 4-((S)-4-acryloyl-2-methylpiperazin-1-yl)-6-fluoro-1-(2-isopropyl-4-methylpyridin-3-yl)-7-(6-methylbenzofuran-7-yl)pyrido[2,3-d]pyrimidin-2(1H)-one] | 100 to 500 nM | 10 to 50 nM | 151 to 163 °C | 
C=CC(=O)N1C[C@H](C)N(c2nc(=O)n(-c3c(C)ccnc3C(C)C)c3nc(-c4c(F)ccc5ccoc45)c(F)cc23)C[C@H]1C [Compound 89, 4-((2S,5R)-4-acryloyl-2,5-dimethylpiperazin-1-yl)-6-fluoro-7-(6-fluorobenzofuran-7-yl)-1-(2-isopropyl-4-methylpyridin-3-yl)pyrido[2,3-d]pyrimidin-2(1H)-one] |  | 10 to 50 nM | 147 to 149 °C | AUC(0-inf) [4]: 14100 ng·h/mL; Cmax [4]: 4300 ng/mL; Tmax [4]: 1 h; half-life [4]: 127 min; AUC(0-t) ([4]; read-out: AUC0-24): 14000 ng·h/mL; IC50 ([1]; 72 hours): 10 to 50 nM

Second part, led by results:

IC50 ([1]; Homo sapiens, MIA PaCa-2, 72 h) | IC50 ([2]; Homo sapiens, NCI-H358, 72 h) | melting point | Structure (SMILES) | also measured
100 to 500 nM | 50 to 100 nM | 146 to 149 °C | C=CC(=O)N1CCN(c2nc(=O)n(-c3c(CO)cccc3C(C)C)c3nc(-c4c(F)ccc5ccoc45)c(F)cc23)[C@@H](C)C1 [Compound 126, 4-((S)-4-acryloyl-2-methylpiperazin-1-yl)-6-fluoro-7-(6-fluorobenzofuran-7-yl)-1-(2-(hydroxymethyl)-6-isopropylphenyl)pyrido[2,3-d]pyrimidin-2(1H)-one] | 
> 500 nM | > 500 nM | 136 to 138 °C | COC/C=C/C(=O)N1CCN(c2nc(=O)n(-c3c(C)ccnc3C(C)C)c3nc(-c4cc5ccoc5cc4F)c(F)cc23)[C@@H](C)C1 [Compound 115, (S,E)-6-fluoro-7-(6-fluorobenzofuran-5-yl)-1-(2-isopropyl-4-methylpyridin-3-yl)-4-(4-(4-methoxybut-2-enoyl)-2-methylpiperazin-1-yl)pyrido[2,3-d]pyrimidin-2(1H)-one] | 
50 to 100 nM | 10 to 50 nM | 146 to 149 °C | C=CC(=O)N1CCN(c2nc(=O)n(-c3c(C#N)cccc3C(C)C)c3nc(-c4c(F)ccc5ccoc45)c(F)cc23)[C@@H](C)C1 [Compound 123, 2-(4-((S)-4-acryloyl-2-methylpiperazin-1-yl)-6-fluoro-7-(6-fluorobenzofuran-7-yl)-2-oxopyrido[2,3-d]pyrimidin-1(2H)-yl)-3-isopropylbenzonitrile] | 
> 500 nM | > 500 nM | 155 to 157 °C | C/C=C/C(=O)N1CCN(c2nc(=O)n(-c3c(C)ccnc3C(C)C)c3nc(-c4cc5ccoc5cc4F)c(F)cc23)[C@@H](C)C1 [Compound 113, (S,E)-4-(4-(but-2-enoyl)-2-methylpiperazin-1-yl)-6-fluoro-7-(6-fluorobenzofuran-5-yl)-1-(2-isopropyl-4-methylpyridin-3-yl)pyrido[2,3-d]pyrimidin-2(1H)-one] | 
> 500 nM | > 500 nM | 162 to 164 °C | Cc1ccnc(C(C)C)c1-n1c(=O)nc(N2CCN(C(=O)/C=C/CN(C)C)C[C@@H]2C)c2cc(F)c(-c3cc4ccoc4cc3F)nc21 [Compound 114, (S,E)-4-(4-(4-(dimethylamino)but-2-enoyl)-2-methylpiperazin-1-yl)-6-fluoro-7-(6-fluorobenzofuran-5-yl)-1-(2-isopropyl-4-methylpyridin-3-yl)pyrido[2,3-d]pyrimidin-2(1H)-one] | 
100 to 500 nM | 50 to 100 nM | 143 to 146 °C | C=CC(=O)N1CCN(c2nc(=O)n(-c3c(C)ncnc3C(C)C)c3nc(-c4c(F)ccc5ccoc45)c(F)cc23)[C@@H](C)C1 [Compound 116, 4-((S)-4-acryloyl-2-methylpiperazin-1-yl)-6-fluoro-7-(6-fluorobenzofuran-7-yl)-1-(4-isopropyl-6-methylpyrimidin-5-yl)pyrido[2,3-d]pyrimidin-2(1H)-one] | 
10 to 50 nM | < 10 nM | 164 to 166 °C | C=CC(=O)N1CCN(c2nc(=O)n(-c3c(C#N)cccc3C(C)C)c3nc(-c4c(F)ccc5ccoc45)c(Cl)cc23)[C@@H](C)C1 [Compound 124, 2-(4-((S)-4-acryloyl-2-methylpiperazin-1-yl)-6-chloro-7-(6-fluorobenzofuran-7-yl)-2-oxopyrido[2,3-d]pyrimidin-1(2H)-yl)-3-isopropylbenzonitrile] | 
 | 50 to 100 nM | 101 to 113 °C | C=CC(=O)N1CCN(c2nc(=O)n(-c3c(C)ccnc3C(C)C)c3nc(-c4c(F)c(OC)cc5ccoc45)c(Cl)cc23)[C@@H](C)C1 [Compound 111, 4-((S)-4-acryloyl-2-methylpiperazin-1-yl)-6-chloro-7-(6-fluoro-5-methoxybenzofuran-7-yl)-1-(2-isopropyl-4-methylpyridin-3-yl)pyrido[2,3-d]pyrimidin-2(1H)-one] | 
50 to 100 nM | 50 to 100 nM | 133 to 136 °C | C=CC(=O)N1CCN(c2nc(=O)n(-c3c(C)nc(C)nc3C(C)C)c3nc(-c4c(F)ccc5ccoc45)c(F)cc23)[C@@H](C)C1 [Compound 117, 4-((S)-4-acryloyl-2-methylpiperazin-1-yl)-6-fluoro-7-(6-fluorobenzofuran-7-yl)-1-(4-isopropyl-2,6-dimethylpyrimidin-5-yl)pyrido[2,3-d]pyrimidin-2(1H)-one] | 
